Experimental data from US7829560B2, “1,4-disubstituted naphthalenes as inhibitors of P38 MAP kinase” (Arqule, Inc., priority 2004, dated 2010).

Key:
[1] = tested on: TNFα release from THP-1 cells; test: Inhibition of TNFα release from LPS-stimulated THP-1 cells, ELISA; assay type: cell-based; settings: Homo sapiens, THP-1, THP-1 cells, read-out: [CELL] THP-1, IC50, TNF ALPHA, ELISA
How it was run: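 Human THP-1 monocytes, 10^6 cells/ml in RPMI with 10% FBS, no serum or 1% HSA, preincubated 30 min at 37 °C with compound (≤0.5% DMSO), then stimulated with 10 μg/ml LPS for 18 h. Supernatant TNFα measured by ELISA; IC50 from non-linear dose-response regression.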

p38α = target: T1, p38α (Homo sapiens, UniProt Q16539); test: p38 MAP Kinase assay: inhibition of ATF2 phosphorylation, ELISA; assay type: biochemical; settings: ATF2 phosphorylation; read-out: [ENZ] P38 ALPHA, IC50, ELISA
T1 construct: p38 MAP Kinases are recombinant human full-length proteins with an amino-terminal GST fusion; GST (N); purchased Upstate Biotechnology Inc; host or cells: E. coli
How it was run: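 GST-tagged full-length human p38 MAP kinase with GST-ATF2 (aa 19–96; 1.25 μM) and 40 μM ATP in HEPES pH 7.5 buffer, without (Method I) or with (Method II) 1% human serum albumin. Compound pre-incubated 15 min at room temperature; reaction 30 min at 37 °C; ATF2 Thr69 phosphorylation measured by ELISA (A450).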

T1 sequence (Q16539 whole entry, the tested form may be a part): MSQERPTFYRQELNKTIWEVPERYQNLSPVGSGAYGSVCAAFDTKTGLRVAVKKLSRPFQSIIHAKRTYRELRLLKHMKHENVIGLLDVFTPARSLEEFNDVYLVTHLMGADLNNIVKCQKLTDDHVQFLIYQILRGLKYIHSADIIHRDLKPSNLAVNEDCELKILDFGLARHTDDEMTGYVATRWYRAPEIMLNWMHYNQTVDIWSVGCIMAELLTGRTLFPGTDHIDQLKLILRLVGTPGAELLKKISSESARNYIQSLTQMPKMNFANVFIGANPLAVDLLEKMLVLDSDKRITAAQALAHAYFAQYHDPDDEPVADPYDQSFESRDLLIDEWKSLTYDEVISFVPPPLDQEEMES

| Structure (SMILES) | IC50 [1] [µM] | IC50 (p38α) [µM] | melting point [°C] |
| --- | --- | --- | --- |
| O=C(Nc1ccc(Oc2ccnc(N3CCC(O)C3)n2)c2ccccc12)c1cc(F)cc(N2CCOCC2)c1 (stereo not drawn) [Compound B339, 3-Fluoro-N-(4-{[2-(3-hydroxypyrrolidin-1-yl)pyrimidin-4-yl]oxy}-1-naphthyl)-5-morpholin-4-ylbenzamide] | 0.347 | 0.0391 | 137 to 139 |
| O=C(Nc1ccc(Oc2ccnc(N3CCC(F)(F)CC3)n2)c2ccccc12)c1cc(F)cc(N2CCCCC2)c1 [Compound B423, N-(4-{[2-(4,4-Difluoropiperidin-1-yl)pyrimidin-4-yl]oxy}-1-naphthyl)-3-fluoro-5-piperidin-1-ylbenzamide] | 0.773 | 0.111 | 172 to 174 |
| O=C(Nc1ccc(OCCCN2CCNCC2)c2ccccc12)c1cc(F)cc(N2CCCCC2)c1 [Compound B183, 3-Fluoro-N-[4-(3-piperazin-1-yl-propoxy)-naphthalen-1-yl]-5-piperidin-1-yl-benzamide] | > 10 | 1.14 | 70 to 72 |
| CC1CCC(Oc2cc(F)cc(C(=O)Nc3ccc(OCCN4CCOCC4)c4ccccc34)c2)C1 (stereo not drawn) [Compound B227, 3-Fluoro-5-[(3-methylcyclopentyl)oxy]-N-[4-(2-morpholin-4-ylethoxy)-1-naphthyl]benzamide] | 4.12 | 0.808 | 65 to 66 |
| CCn1c(COc2ccc(NC(=O)c3cc(F)cc(N4CCC(C)CC4)c3)c3ccccc23)n[nH]c1=O [Compound B220, N-[4-(4-Ethyl-5-oxo-4,5-dihydro-1H-[1,2,4]triazol-3-ylmethoxy)-naphthalen-1-yl]-3-fluoro-5-(4-methyl-piperidin-1-yl)-benzamide] | 2.87 | 0.145 | 240 to 241 |
| O=C(Nc1ccc(Oc2ccnc(NCC3CC3)n2)c2ccccc12)c1cc(F)cc(N2CCOCC2)c1 [Compound B336, N-[4-({2-[(Cyclopropylmethyl)amino]pyrimidin-4-yl}oxy)-1-naphthyl]-3-fluoro-5-morpholin-4-ylbenzamide] | 0.0058 | 0.0025 | 116 to 117 |
| CC1CCN(c2nccc(Oc3ccc(NC(=O)c4cc(F)cc(N5CCCCC5)c4)c4ccccc34)n2)CC1 [Compound B381, 3-Fluoro-N-(4-{[2-(4-methylpiperidin-1-yl)pyrimidin-4-yl]oxy}-1-naphthyl)-5-piperidin-1-ylbenzamide] | 0.59 | 0.0878 | 145 to 146 |
| O=C(Nc1ccc(OCCc2cccnc2)c2ccccc12)c1cc(F)cc(N2CCOCC2)c1 [Compound B190] | 7.52 | 0.826 | 80 to 82 |
| COc1ccc(CCOc2ccc(NC(=O)c3cc(F)cc(N4CCCCC4)c3)c3ccccc23)cc1OC [Compound B179, N-{4-[2-(3,4-Dimethoxyphenyl)ethoxy]-1-naphthyl}-3-fluoro-5-piperidin-1-ylbenzamide] | 2.05 | 1.06 | 158 to 160 |
| N#Cc1ccc(C(=O)Nc2ccc(OCCN3CCOCC3)c3ccccc23)cc1 [Compound B36, 4-Cyano-N-[4-(2-morpholin-4-ylethoxy)-1-naphthyl]benzamide] | 6.62 | 5.09 | 213 to 214 |
| CC1CCN(c2cc(F)cc(C(=O)Nc3ccc(OCCN4CCOCC4)c4ccccc34)c2)CC1 [Compound B184, 3-Fluoro-5-(4-methylpiperidin-1-yl)-N-[4-(2-morpholin-4-ylethoxy)-1-naphthyl]benzamide] | 6.99 | 1.07 | 116 to 118 |
